Measured values taken from BindingDB's records for doi:10.1016/j.bioorg.2013.09.002 (Ewha Womans University, 2013).
Where a SMILES comes first, the peptide text is derived from it. The star is where a group is joined. Cbz = O=C(OCc1ccccc1)*; CH2F = FC*

Key:
Procathepsin L = Procathepsin L (Homo sapiens, UniProt P07711); assay: Cathepsin L Inhibition Assay; details: pH 5.5; 37 °C
Procedure: Inhibition of cathepsin L was assayed in reaction buffer (0.1M NaOAc-HCl, 1 mM EDTA, 0.1% β-mercaptoethanol, pH 5.5) containing 20 µM substrate and 4 nM cathepsin L. Z-FR-AMC was used as a substrate for […]. Cathepsin L was activated by incubation in assay buffer at 37 °C for 30 min prior to initiation of the reaction by addition of the substrate and test compound. The reaction mixture was then incubated at room temperature for 30 min with shaking. Fluorescence intensities were measured at 360 nm excitation and 450 nm emission wavelengths.

[1] = biological target: T1, Calpain-2 catalytic subunit (Homo sapiens, UniProt P17655); assay: m-Calpain Inhibition Assay; details: pH 7.5; 25 °C
T1 sequence (P17655 whole entry): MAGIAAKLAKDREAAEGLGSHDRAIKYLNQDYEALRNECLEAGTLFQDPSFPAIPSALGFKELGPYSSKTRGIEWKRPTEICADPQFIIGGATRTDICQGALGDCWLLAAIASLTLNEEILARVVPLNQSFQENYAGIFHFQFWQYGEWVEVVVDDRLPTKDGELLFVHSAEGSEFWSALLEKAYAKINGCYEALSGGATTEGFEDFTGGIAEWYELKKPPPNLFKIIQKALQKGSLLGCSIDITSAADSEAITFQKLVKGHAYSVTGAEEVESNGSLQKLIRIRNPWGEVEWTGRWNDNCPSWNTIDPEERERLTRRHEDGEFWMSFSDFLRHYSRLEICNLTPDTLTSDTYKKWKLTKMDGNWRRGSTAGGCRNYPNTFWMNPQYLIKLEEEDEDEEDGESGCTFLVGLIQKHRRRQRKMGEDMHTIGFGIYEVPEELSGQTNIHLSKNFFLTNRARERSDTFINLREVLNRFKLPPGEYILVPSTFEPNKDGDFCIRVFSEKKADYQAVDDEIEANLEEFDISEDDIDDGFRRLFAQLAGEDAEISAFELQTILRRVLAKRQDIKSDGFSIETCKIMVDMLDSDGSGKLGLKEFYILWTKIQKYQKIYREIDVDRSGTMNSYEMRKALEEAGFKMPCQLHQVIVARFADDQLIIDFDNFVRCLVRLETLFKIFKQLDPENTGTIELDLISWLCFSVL
Procedure: Inhibition of m-calpain was assayed in the reaction buffer (50 mM Tris-HCl, 100 mM NaCl, 5 mM β-mercaptoethanol, and 1 mM EDTA, pH 7.5) with 50 µM substrate B, 5 mM CaCl2 and 2.88 U/mL m-calpain. The reaction was initiated by sequential addition of substrate B, m-calpain, each compound, and finally a CaCl2 solution. The reaction mixture (100 µL) was incubated at room temperature for 30 min with shaking. Fluorescence intensities were measured at 320 nm excitation and 420 nm emission wavelengths. MDL28170 was used as a positive control for µ- and m-calpain inhibition.

[2] = biological target: T2, Calpain-1 catalytic subunit (Homo sapiens, UniProt P07384); assay: µ-Calpain Inhibition Assay; details: pH 7.5; 25 °C
T2 sequence (P07384 whole entry): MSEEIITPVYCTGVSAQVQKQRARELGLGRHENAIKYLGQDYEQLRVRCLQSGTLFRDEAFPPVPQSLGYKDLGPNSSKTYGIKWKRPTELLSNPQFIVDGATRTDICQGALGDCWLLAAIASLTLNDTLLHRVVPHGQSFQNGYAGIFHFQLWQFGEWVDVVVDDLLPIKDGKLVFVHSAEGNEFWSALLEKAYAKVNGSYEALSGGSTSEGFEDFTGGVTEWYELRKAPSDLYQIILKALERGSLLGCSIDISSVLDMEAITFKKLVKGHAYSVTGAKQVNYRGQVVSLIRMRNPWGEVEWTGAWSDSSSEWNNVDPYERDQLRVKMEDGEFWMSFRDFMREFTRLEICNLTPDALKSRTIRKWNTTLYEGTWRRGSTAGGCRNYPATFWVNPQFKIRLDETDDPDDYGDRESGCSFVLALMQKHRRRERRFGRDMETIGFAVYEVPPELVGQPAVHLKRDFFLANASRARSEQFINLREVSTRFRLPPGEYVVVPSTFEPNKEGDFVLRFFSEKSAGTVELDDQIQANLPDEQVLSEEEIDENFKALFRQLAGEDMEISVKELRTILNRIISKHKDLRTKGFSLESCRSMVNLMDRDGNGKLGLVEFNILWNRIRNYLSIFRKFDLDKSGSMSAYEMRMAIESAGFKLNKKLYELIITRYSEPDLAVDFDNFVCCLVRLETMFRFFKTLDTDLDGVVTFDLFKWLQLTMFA
Procedure: The reaction was initiated by sequential addition of substrate A, µ-calpain, each compound, and finally a CaCl2 solution. The reaction mixture (100 µL) was incubated at room temperature for 30 min with shaking. Fluorescence intensities were measured at 320 nm excitation and 420 nm emission wavelengths.

Chain of Procathepsin L (P07711 whole entry): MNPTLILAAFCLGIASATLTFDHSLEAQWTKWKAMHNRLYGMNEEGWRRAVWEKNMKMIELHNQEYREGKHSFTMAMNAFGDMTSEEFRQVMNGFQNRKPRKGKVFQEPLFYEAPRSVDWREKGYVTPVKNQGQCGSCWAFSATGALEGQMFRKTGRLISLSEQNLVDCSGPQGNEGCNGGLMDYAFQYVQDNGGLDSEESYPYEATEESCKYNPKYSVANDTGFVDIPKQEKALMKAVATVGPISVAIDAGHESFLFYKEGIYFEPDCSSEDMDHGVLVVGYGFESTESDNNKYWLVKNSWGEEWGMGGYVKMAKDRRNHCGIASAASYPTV

| SMILES | IC50 (Procathepsin L) [µM] | IC50 [1] [µM] | IC50 [2] [µM] |
| --- | --- | --- | --- |
| O=C(/C=C/c1ccco1)c1ccc(O)cc1O [1-(2,4-Dihydroxyphenyl)-3-(furan-2-yl)propenone (10)] | 90.5 | 25.4 | 86.7 |
| O=C(/C=C/c1ccccn1)c1ccc(O)cc1O [1-(2,4-Dihydroxyphenyl)-3-(pyridin-2-yl)propenone (8)] | > 100 | > 100 | > 100 |
| O=C(/C=C/c1cccnc1)c1ccc(O)cc1O [1-(2,4-Dihydroxyphenyl)-3-(pyridin-3-yl)propenone (7)] | > 100 | > 100 | > 100 |
| O=C(/C=C/c1ccncc1)c1ccc(O)cc1O [1-(2,4-Dihydroxyphenyl)-3-(pyridin-4-yl)propenone (6)] | 44.4 | > 100 | > 100 |
| O=C(/C=C/c1cccs1)c1ccc(O)cc1O [1-(2,4-Dihydroxyphenyl)-3-(thiophen-2-yl)propenone (9)] | 53 | 39.9 | 56.2 |
| O=C(/C=C/c1ccco1)c1cc(O)cc(O)c1 [1-(3,5-Dihydroxyphenyl)-3-(furan-2-yl)propenone (21)] | > 100 | > 100 | > 100 |
| O=C(/C=C/c1ccoc1)c1cc(O)cc(O)c1 [1-(3,5-Dihydroxyphenyl)-3-(furan-3-yl)propenone (24)] | > 100 | > 100 | > 100 |
| O=C(/C=C/c1cccs1)c1cc(O)cc(O)c1 [1-(3,5-Dihydroxyphenyl)-3-(thiophen-2-yl)propenone (20)] | > 100 | > 100 | > 100 |
| O=C(/C=C/c1ccsc1)c1cc(O)cc(O)c1 [1-(3,5-Dihydroxyphenyl)-3-(thiophen-3-yl)propenone (23)] | > 100 | 97.3 | > 100 |
| O=C(/C=C/c1ccccc1)c1cc(O)cc(O)c1 [1-(3,5-Dihydroxyphenyl)-3-phenylpropenone (22)] | > 100 | > 100 | > 100 |
| O=C(/C=C/c1ccc(O)cc1O)c1ccco1 [3-(2,4-Dihydroxyphenyl)-1-(furan-2-yl)propenone (14)] | 2.87 | > 100 | > 100 |
| O=C(/C=C/c1ccc(O)cc1O)c1cccs1 [3-(2,4-Dihydroxyphenyl)-1-(thiophen-2-yl)propenone (13)] | 2.8 | 60.2 | > 100 |
| CCCNC(=O)[C@H]1O[C@@H]1C(=O)N[C@H](C(=O)N1CCC[C@H]1C(=O)O)[C@@H](C)CC [CA074] |  | > 100 | > 100 |
| O=C(NC(Cc1ccccc1)C(=O)NC(Cc1ccccc1)C(=O)CF)OCc1ccccc1 (stereo not drawn) [benzyl N-[1-[(4-fluoro-3-oxo-1-phenylbutan-2-yl)amino]-1-oxo-3-phenylpropan-2-yl]carbamate] (Cbz-Phe-Phe-CH2F; configuration not given here) |  | 0.418 | 0.397 |
| CC(C)C(NC(=O)OCc1ccccc1)C(=O)NC(C=O)Cc1ccccc1 [benzyl N-[(1S)-2-methyl-1-[(1-oxo-3-phenylpropan-2-yl)carbamoyl]propyl]carbamate] (Cbz-Val-Phe-aldehyde; configuration not given here) |  | 0.15 |  |
